Experimental findings from US20230349922A1, “H2 Blockers Targeting Liver Macrophages for the Prevention and Treatment of Liver Disease and Cancer” (Université de Strasbourg, priority 2020, published 2023) are described below.

For series [1], the system named is patient-derived HCC tumor spheroids. Description: Cell viability (ATP, CellTiter-Glo) of patient-derived HCC tumorspheroids. Format: cell-based, human. Particulars: nizatidine 50 μM, 4 days, ATP levels, compared to DMSO; 6 patients. As for the experimental part:
Patient-Derived HCC Tumor Spheroids. Tumorspheroids were generated from liver tissues from HCC patients undergoing surgical resection and dissociated using the Human Tumor Dissociation Kit. Total cell populations including epithelical (i.e., cancer cells/hepatocytes) and NPCs were used to generate multicellular tumorspheroids in Corning® 96-well Black/Clear Bottom Low Flange Ultra-Low Attachment Microplates (Corning). After 48 hours, HCC-derived spheroids were treated with nizatidine 50 μM, sorafenib 10 μM or DMSO vehicle control for 4 days. Fresh medium containing DMSO or drugs was added every day. Cell viability was assessed using CellTiter-Glo® (Luminescent Cell Viability Assay), according to manufacturer's instruction.
For orientation: ATP-based viability assays read luminescence as a measure of living cells.

Series [2] relates to M1-polarized THP-1 macrophages. Description: Cytokine expression by qRT-PCR in M1-polarized THP-1 macrophages. Format: cell-based, human. On the procedure: Real-Time qRT-PCR. cDNAs were synthetized by reverse transcription using SuperScript III First-Strand Synthesis SuperMix (Life Technologies). Expression of mouse IL6, TNFα and IL1β was analyzed by quantitative real-time PCR using TaqMan Gene Expression Assays (Thermo Fisher Scientific) on the CFX96 Touch Real-Time PCR Detection System PCR system (Bio-Rad). Expression of human CCL2 and TGF was analyzed using iTaq™ Universal SYBR® Green Supermix (Bio-Rad). The 2^−ΔCT method was used for relative quantification (Schmittgen and Livak, Nature Protoc., 2008, 3: 1101-1108) of mRNA with normalization to 18S. The 2^−ΔCT method was used for relative quantification (Schmittgen and Livak, Nature Protoc., 2008, 3: 1101-1108) of mRNA with normalization to GAPDH mRNA.
M1 Macrophage Polarization and HRH2 Blocker Treatment. THP1 cells were cultured in RPMI 1640 Medium with GlutaMAX™-I supplement and HEPES and supplemented with 10% FBS and gentamycin (0.05 mg/mL). M1 macrophage polarization from THP-1 was performed as previously described (Yeung et al., J. Hepatol., 2015, 62: 607-616). To generate MO THP-1 macrophages, THP1 cells were treated with PMA 320 nM for 24 hours. To generate M1-polarized THP-1 macrophages, THP-1 cells were treated with […] then with 100 ng/ml LPS and 20 ng/ml IFNγ for 18 hours. […]
In general terms: Quantitative PCR measures a nucleic acid by following its amplification.

A further series concerns intracellular cAMP. Description: Intracellular cAMP level by ELISA in HCV-infected Huh7.5.1dif cells. Format: cell-based, human. Particulars: increase following induction of the poor-prognosis PLS (HCV Jc1 5 days), nizatidine 3 more days. On the procedure:
ELISA Assay. To assess the HCV infection and nizatidine treatment on intracellular cAMP level, Huh7.5.1^dif cells were infected with HCV Jc1 for 5 days and were incubated for 3 more days with nizatidine or DMSO as a control. The cAMP level was measured by ELISA assay using the cAMP Parameter Assay Kit (R&D System) according to manufacturer's instructions.

Series [3] relates to primary human hepatocytes (PHH). Description: Cell viability of primary human hepatocytes in 3D culture. The format is cell-based. Particulars: 4 days after nizatidine treatment, compared to DMSO. On the procedure: FIG. 9. Proof-of-concept for Therapeutic Impact of Nizatidine in Patient-Derived HCC Spheroids. (A) Absent effect on cell viability in PHH, assessed 4 days after nizatidine treatment in 3D culture. […] (B) Nizatidine decreases HCC cell viability in a 3D patient-derived tumorspheroid model. HCC spheroids were generated from patient HCC tissues with different etiologies. Cell viability was assessed 4 days after treatment by measuring ATP levels. […] The pictures show representative image of patient-derived tumorspheroids (magnification X40). NASH=non-alcoholic steatohepatitis; ALD=alcoholic liver disease. Source data are provided as a Source Data file.

In series [4] the test system is prognostic liver signature (PLS). Description: cPLS model: reversal of the prognostic liver signature in HCV-infected Huh7.5.1dif cells. Format: cell-based, human. Particulars: Huh7.5.1dif cells infected with HCV Jc1 for 7 days, treated 3 additional days; GSEA.
Series [5] relates to patient-derived Kupffer cells. Description: Cytokine expression by qRT-PCR in M1 differentiated patient-derived Kupffer cells. Format: cell-based, human. Particulars: Kupffer cells isolated from patient tissues, LPS + IFNγ, nizatidine 30 μM 48 hours. As for the experimental part: Real-Time qRT-PCR. cDNAs were synthetized by reverse transcription using SuperScript III First-Strand Synthesis SuperMix (Life Technologies). Expression of […] IL6, TNFα and IL1β was analyzed by quantitative real-time PCR using TaqMan Gene Expression Assays (Thermo Fisher Scientific) on the CFX96 Touch Real-Time PCR Detection System PCR system (Bio-Rad). Expression of human CCL2 and TGF was analyzed using iTaq™ Universal SYBR® Green Supermix (Bio-Rad). The 2^−ΔCT method was used for relative quantification (Schmittgen and Livak, Nature Protoc., 2008, 3: 1101-1108) of mRNA with normalization to 18S. The 2^−ΔCT method was used for relative quantification (Schmittgen and Livak, Nature Protoc., 2008, 3: 1101-1108) of mRNA with normalization to GAPDH mRNA. Isolation and Treatment of Patient-Derived Kupffer Cells. Kupffer cells were isolated as previously described (Kegel et al., J. Vis. Exp., 2016, 109: e53069) from liver tissue of patients without history of chronic liver disease. Briefly, the non-parenchymal cell populations (NPCs) were purified by serial centrifugation followed by separation of Kupffer cells, exploiting fast attachment of primary macrophages to plastic within 20 minutes. Cells were cultured in RPMI 1640 Medium with GlutaMAX™-I supplement and HEPES and supplemented with 10% FBS and gentamycin (0.05 mg/mL). […]

The mark [6] stands for this setting: activated THP1-derived macrophages.

For `CNC(=C[N+](=O)[O-])NCCSCc1csc(CN(C)C)n1` [Nizatidine, N-[2-[[[2-[(dimethylamino)methyl]-4-thizaolyl]methyl]thio]ethyl]-N′-methyl-2-nitro-1,1-ethene-diamine], in series [1], the tumor spheroid viability result is “significant decrease of tumor spheroid viability in 4 out of 6 patients”. Further, the pro-inflammatory cytokine expression result in series [2] (THP1-derived M1-polarized macrophages, nizatidine 48 hours) is listed as “direct effect”. Besides, in series [2] (setting [6]), the IL6 expression entry is listed as “decreased” and the TNFα expression result is listed as “decreased”. Besides, the “intracellular cAMP level” value with intracellular cAMP was “reverted”. Further, in series [3], the PHH viability entry was “no effect”. For the same compound, the “reversal of the poor prognosis status of the prognostic liver signature (PLS)” value in series [4] is recorded as “PLS-reversing compounds with highest statistical significance”. The pro-inflammatory cytokine expression result in series [5] is “direct effect”.
